Measurements published in patent US20230165836A1, “ALPHA-2 ADRENERGIC RECEPTOR AGONISTS FOR THE TREATMENT OF CANCER” (UNIVERSITÉ CATHOLIQUE DE LOUVAIN, priority 2020, published 2023).
“Also recorded” adds a separate entry of the source. Like-named read-outs stand apart in the source and are kept apart here.

Legend:
[1] = test system: CT26 colon carcinomas; assay: CT26 colon carcinoma model, daily i.p. treatment, tumor volume; format: in vivo, BALB/c mice; conditions: CT26 in BALB/c mice; 5 mg/kg, i.p. daily from tumor size around 50 mm^3 until sacrifice
Experimental: Mice received a daily intra-peritoneal injection of guanabenz (5 mg/kg) or vehicle (PBS) from the day of randomization (and the day of ACT when applicable) until the day of sacrifice. For the co-administration of adrenergic receptor agonist and antagonist, BALB/c mice bearing CT26 colon carcinomas received daily injections of vehicle control, guanabenz (5 mg/kg, i.p.), or guanabenz (5 mg/kg, i.p.) plus yohimbine (10 mg/kg, i.p.), when the tumor size was around 50 mm^3, until the day of sacrifice.
[…] mice were injected subcutaneously with 2×10^6 CT26 colon tumor cells at an age of 6 to 8 weeks. […] For evaluation of yohimbine on the effect of clonidine and guanabenz, the mice were randomized into different groups when tumors size arrived around 100 mm^3 and received daily injections of guanabenz (5 mg/kg, i.p.), yohimbine (10 mg/kg), a mix of guanabenz (5 mg/kg, i.p.) and yohimbine (10 mg/kg, i.p.), clonidine (5 mg/kg, i.p.), a mix of clonidine (5 mg/kg, i.p.) and yohimbine (10 mg/kg, i.p.) or vehicle control. Tumor size was measured every 2 days and mice were sacrificed when the tumor in control group reached 1,000 mm^3.

[2] = test system: CT26 colon cancer; assay: CT26 colon cancer tumor growth (FIGS. 15-16); format: in vivo, C57BL/6J mice; conditions: CT26 colon cancer, FIGS. 15A, 16A
Excerpt: Tumor infiltration of CD8+cells evaluated at the day of sacrifice by FACS (FIG. 15B). Tumor growth of CT26 colon cancer in NSG mice treated with PBS (Control), clonidine, clonidine mixed with yohimbine, or yohimbine alone (FIG. 15C). FIGS. 16A-C is a set of curves and histograms showing the tumor growth of CT26 colon cancer in C57BL/6J mice treated with PBS (Control, circles), guanabenz (diamonds), guanabenz mixed with yohimbine (light grey inverted triangles), or yohimbine alone (dark grey inverted triangles) (FIG. 16A); the tumor infiltration of CD8+ cells evaluated at the day of sacrifice by FACS (FIG. 16B); and the tumor growth of CT26 colon cancer in NSG mice treated with PBS (Control), guanabenz, guanabenz mixed with yohimbine, or yohimbine alone (FIG. 16C). […] For evaluation of yohimbine on the effect of clonidine and guanabenz, the mice were randomized into different groups when tumors size arrived around 100 mm^3 and received daily injections of guanabenz (5 mg/kg, i.p.), yohimbine (10 mg/kg), a mix of guanabenz (5 mg/kg, i.p.) and yohimbine (10 mg/kg, i.p.), clonidine (5 mg/kg, i.p.), a mix of clonidine (5 mg/kg, i.p.) and yohimbine (10 mg/kg, i.p.) or vehicle control.

[3] = test system: JAK2V617F allele burden; assay: Myelofibrosis by JAK2V617F bone marrow transplantation, allele burden; format: in vivo, C57BL/6 mice; conditions: 5 mg/kg i.p. daily; Day 7 versus Day 0
Experimental: Bone marrow from primary CD45.2 JAK2V617F mice was mixed 1:1 with CD45.1 C57BL/6 marrow and transplanted into lethally irradiated CD45.2 C57BL/6 recipients. 1 month after bone marrow transplantation, mice were randomized into three groups and received daily i.p injection of 5 mg/kg of clonidine, guanabenz or PBS. Blood was taken on Day 0 (Just before the treatment) and on Day 7 (7 days after the treatment). The allele burden was assessed as a fraction of CD45.2 cells along total CD45 cells in the blood of mice.
Decreased JAK2V617F allele burden is a golden standard method to evaluate the disease progression of MF.

[4] = test system: myelofibrosis induced by romiplostim; conditions: romiplostim 1 mg/kg s.c. days 1, 8, 15, 5 mg/kg i.p. daily for two weeks from day 8, wildtype mice
Experimental: 8-week female C57BL/6 J wild-type and Adra2a KO mice were administered saline or 1 mg/kg of romiplostim by a subcutaneous injection into the neck skin on days 1, 8 and 15. Clonidine or guanabenz were administrated i.p. at a dose of 5 mg/kg daily for two weeks starting from day 8. Mice were dissected on day 22 and peripheral blood was drawn by cardiac puncture, the platelet concentration was measured by Cell Counter Analyzer MS9-5V.

[5] = test system: human LS411N ovarian cancer; assay: LS411N xenograft with adoptive transfer of allogeneic human PBMC; format: in vivo; conditions: human allogenic PBMC transferred at tumor size 100 mm^3
Experimental: Adoptive transfer of human PBMC was performed when tumor size reaches 100 mm^3.

[6] = test system: fibrosarcoma; assay: Tumor model: fibrosarcoma; format: in vivo, mice; conditions: fibrosarcoma (FIG. 22H, 23H)
Excerpt: FIGS. 23A-H is a set of curves showing the tumor growth of mice treated with PBS (Control, circles) or guanabenz (GBZ, triangles) in different tumor models: such as mammary gland tumor (FIG. 23A), hepatocellular carcinoma (FIG. 23B), T cell lymphoma (FIG. 23C), lung cancer (FIG. 23D), myeloma (FIG. 23E), mammary adenocarcinoma (FIG. 23F), renal cancer (FIG. 23G) and fibrosarcoma (FIG. 23H).

`Clc1cccc(Cl)c1N=C1NCCN1` [clonidine] was tested, and the “tumor growth (tumor volume)” value [1] was “promotes a decrease of the tumor volume; also recorded: strongly inhibited CT26 tumor growth”, the tumor growth [2] was “inhibited CT26 colon cancer tumor growth” and the “JAK2V617F allele burden (CD45.2 cells among total CD45 cells in blood)” value [3] was “decrease of JAK2V617F allele burden in a number of mice”. For the same compound, the “platelet (PLT) counts” value [4] was “significantly reduces the platelet (PLT) counts”, the “platelet (PLT) counts” value ([4]; listed as Clonidine) was “reduces the platelet count” and the tumor growth [5] was “significant tumor inhibition”. The tumor growth [6] was “strong tumor inhibition”.
